The target in one data set is Dyrk1B (Homo sapiens, UniProt Q9Y463). The experiment in a line: Z'-LYTE kinase inhibition assay, Dyrk1B. Type of data set: biochemical. Particulars: for pIC50: ATP conc. equivalent to Km; for inhibition at 1 µM: read-out: Dyrk1B % Inh. At 1 µM. The text has this: (§1) 3. Experimental procedure for protein kinases and inhibition assays.
(§2) 3.1 The Z ́ -LYTE biochemical assay for screening and IC 50 determination for Clk1, Dyrk1A, Dyrk1B, Clk2 and Clk3 kinases.
(§3) The assay employs a fluorescence-based, coupled-enzyme format and is based on the differential sensitivity of phosphorylated and non-phosphorylated peptides to proteolytic cleavage. The peptide substrate is labeled with two fluorophores-one at each end-that make up a FRET pair. In the primary reaction, the kinase transfers the gamma-phosphate of ATP to a single tyrosine, serine, or threonine residue in a synthetic FRET-peptide. In the secondary reaction, a site-specific protease recognizes and cleaves non-phosphorylated FRET-peptides. Phosphorylation of FRET-peptides suppresses cleavage by the Development Reagent. Cleavage disrupts FRET between the donor (i.e., coumarin) and acceptor (i.e., fluorescein) fluorophores on the FRET-peptide, whereas uncleaved, phosphorylated FRET-peptides maintain FRET. A ratiometric method, which calculates the ratio (the Emission Ratio) of donor emission to acceptor emission after excitation of the donor fluorophore at 400 nm, is used to quantitate reaction progress. Both cleaved and uncleaved FRET-peptides contribute to the fluorescence signals and therefore to the Emission Ratio. The extent of phosphorylation of the FRET-peptide can be calculated from the Emission Ratio. The Emission Ratio will remain low if the FRET-peptide is phosphorylated (i.e., no kinase inhibition) and will be high if the FRET-peptide is non-phosphorylated (i.e., kinase inhibition).
(§4) The IC 50 values were determined for compounds displaying significant % inhibition in the screening step. IC 50 determination was done through testing at a range of concentrations with two […]
(§5) two independent experiments. […]
3.1.3 Dyrk1B kinase assay specific conditions:
The 2X Dyrk1B / Ser/Thr 18 mixture is prepared in 50 mM HEPES pH 6.5, 0.01% BRIJ-35, 10 […]
mM MgCl2, 1 mM EGTA, 0.02% NaN3.
(§6) Development Reagent A is added. […]
(§7) MgCl2, 1 mM EGTA, 0.02% NaN3. […]

Another data set has as its target Dyrk1A (Homo sapiens, UniProt Q13627). As to the kind of experiment: Z'-LYTE kinase inhibition assay, Dyrk1A. Type of data set: biochemical. Particulars: for inhibition at 1 µM: read-out: Dyrk1A % Inh. At 1 µM; for pIC50: ATP conc. equivalent to Km.
Excerpt: as §1, §2, §3, §4, §5
3.1.2 Dyrk1A kinase assay specific conditions:
The 2x Dyrk1A / Ser/Thr 18 mixture is prepared in 50 mM HEPES pH 7.5, 0.01% BRIJ-35, 10 […]
2 µM Ser/Thr 18 in 50 mM HEPES pH 7.5, 0.01% BRIJ-35, 10 mM MgCl 2, 1 mM EGTA. […]
as §6, §7

A further data set concerns the target Clk1 (Homo sapiens, UniProt P49759). The experiment in a line: Z'-LYTE kinase inhibition assay, Clk1. Particulars: for pIC50: ATP conc. equivalent to Km; for inhibition at 1 µM: read-out: Clk1 % Inh. At 1 µM. Type of data set: biochemical.
Excerpt: as §1, §2, §3, §4
two independent experiments.
3.1.1 Clk1 kinase assay specific conditions:
The 2x Clk1 / Ser/Thr 09 mixture is prepared in 50 mM HEPES pH 7.5, 0.01% BRIJ-35, 10 mM MgCl 2, 1 mM EGTA. The final 10 μL kinase reaction consists of 30 - 120 ng Clk1 and 2 μM Ser/Thr 09 in 50 mM HEPES pH 7.5, 0.01% BRIJ-35, 10 mM MgCl 2, 1 mM EGTA. After the 1 h

Our source for the melting point, IC50 and inhibition values is PMC11171218, “N-Benzylated 5-Hydroxybenzothiophene-2-carboxamides as Multi-Targeted Clk/Dyrk Inhibitors and Potential Anticancer Agents” (Cancers, 2024).

pIC50: −log10 of the molar value.

Chain of Clk1 (P49759 whole entry): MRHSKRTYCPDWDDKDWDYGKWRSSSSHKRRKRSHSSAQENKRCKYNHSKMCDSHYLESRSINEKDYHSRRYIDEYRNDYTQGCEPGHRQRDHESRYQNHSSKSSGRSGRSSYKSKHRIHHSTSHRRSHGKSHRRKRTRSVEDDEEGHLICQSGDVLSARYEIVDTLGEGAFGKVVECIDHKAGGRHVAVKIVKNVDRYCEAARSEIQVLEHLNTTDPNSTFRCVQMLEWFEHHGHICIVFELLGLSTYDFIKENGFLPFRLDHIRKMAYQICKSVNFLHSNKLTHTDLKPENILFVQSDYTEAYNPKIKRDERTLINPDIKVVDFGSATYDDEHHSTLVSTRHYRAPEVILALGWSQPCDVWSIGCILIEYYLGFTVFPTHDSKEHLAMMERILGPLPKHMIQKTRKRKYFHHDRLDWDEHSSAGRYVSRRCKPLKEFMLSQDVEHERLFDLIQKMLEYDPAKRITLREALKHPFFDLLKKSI
Chain of Dyrk1B (Q9Y463 whole entry): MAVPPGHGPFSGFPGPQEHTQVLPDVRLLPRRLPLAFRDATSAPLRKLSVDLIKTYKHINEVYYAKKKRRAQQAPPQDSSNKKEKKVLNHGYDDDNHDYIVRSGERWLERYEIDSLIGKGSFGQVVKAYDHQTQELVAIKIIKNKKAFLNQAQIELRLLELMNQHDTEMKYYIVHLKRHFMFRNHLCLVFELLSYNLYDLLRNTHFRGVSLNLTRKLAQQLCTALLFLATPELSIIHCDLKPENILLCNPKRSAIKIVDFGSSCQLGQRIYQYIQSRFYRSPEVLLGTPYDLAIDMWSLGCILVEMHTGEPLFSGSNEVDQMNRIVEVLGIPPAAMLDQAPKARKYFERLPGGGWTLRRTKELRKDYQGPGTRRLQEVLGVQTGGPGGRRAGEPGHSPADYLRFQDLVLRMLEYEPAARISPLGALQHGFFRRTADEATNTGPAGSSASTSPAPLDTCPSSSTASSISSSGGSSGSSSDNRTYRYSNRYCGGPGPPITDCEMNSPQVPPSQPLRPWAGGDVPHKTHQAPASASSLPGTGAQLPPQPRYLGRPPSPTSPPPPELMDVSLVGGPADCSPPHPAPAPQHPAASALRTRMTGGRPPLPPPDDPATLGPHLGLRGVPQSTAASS

By melting point is commonly meant the temperature of the solid-liquid transition. As usually defined, the pIC50 is −log10 of the IC50, conventionally taken in molar units. Consider `O=C(NCc1cccs1)c1cc2cc(O)ccc2s1` [Compound 27, 5-Hydroxy-N-(thiophen-2-ylmethyl)benzo[b]thiophene-2-carboxamide], for which the melting point lay in the range of 139.6 to 141.4 °C. Moreover, on Dyrk1B, the pIC50 is 6.15 and the inhibition at 1 µM came out at 61%. Also, the inhibition at 1 µM at Dyrk1A stood at 53%. On Clk1, the pIC50 was 6.15 and the inhibition at 1 µM turned out to be 60%.

`O=C(NCc1ccc(Cl)cc1)c1cc2cc(O)ccc2s1` [Compound 4, N-(4-Chlorobenzyl)-5-hydroxybenzo[b]thiophene-2-carboxamide]: the melting point lay within 182 to 183.7 °C. Further, on Dyrk1B, the inhibition at 1 µM came out at 0%. In addition, the inhibition at 1 µM at Dyrk1A was 7%. The inhibition at 1 µM at Clk1 is 40%.

`COc1ccc(CNC(=O)c2cc3cc(O)ccc3s2)c(OC)c1` [Compound 21, N-(2,4-Dimethoxybenzyl)-5-hydroxybenzo[b]thiophene-2-carboxamide]: the melting point fell in the range of 163.3 to 164.5 °C. In addition, the inhibition at 1 µM at Dyrk1B turned out to be 17%. Moreover, the inhibition at 1 µM at Dyrk1A was 9%. Moreover, at Clk1, the inhibition at 1 µM amounted to 43%.

Take `COc1ccc(CNC(=O)c2cc3cc(O)ccc3s2)cc1` [Compound 13, 5-Hydroxy-N-(4-methoxybenzyl)benzo[b]thiophene-2-carboxamide]: the melting point was in the range of 176.5 to 178 °C. In addition, the inhibition at 1 µM at Dyrk1B came out at 16%. In addition, the inhibition at 1 µM on Dyrk1A turned out to be 9%. Moreover, on Clk1, the inhibition at 1 µM stood at 17%.

Compound `O=C(c1cc2cc(O)ccc2s1)N1Cc2ccc(Cl)cc2C1` [Compound 25, (5-Chloroisoindolin-2-yl)(5-hydroxybenzo[b]thiophen-2-yl)methanone] had a melting point of 224.9 to 226 °C. On Dyrk1B, the inhibition at 1 µM came out at 24%. Also, the inhibition at 1 µM on Dyrk1A was found to be 13%. In addition, on Clk1, the pIC50 was 6.22 and the inhibition at 1 µM came to 62%.

In the case of `O=C(NCc1ccc(F)cc1F)c1cc2cc(O)ccc2s1` [Compound 16, N-(2,4-Difluorobenzyl)-5-hydroxybenzo[b]thiophene-2-carboxamide], the inhibition at 1 µM at Dyrk1B was 53%; at Dyrk1A, 40%; at Clk1 it was 50%.

`COc1cccc(CNC(=O)c2cc3cc(O)ccc3s2)c1OC` [Compound 20, N-(2,3-Dimethoxybenzyl)-5-hydroxybenzo[b]thiophene-2-carboxamide] had a melting point of 181.1 to 183.3 °C. Besides, the inhibition at 1 µM at Dyrk1B was found to be 19%. Also, the inhibition at 1 µM on Dyrk1A is 14%. Moreover, the inhibition at 1 µM at Clk1 was 21%.

For `O=C(c1cc2cc(O)ccc2s1)N1CCc2ccccc2C1` [Compound 24, (3,4-Dihydroisoquinolin-2(1H)-yl)(5-hydroxybenzo[b]thiophen-2-yl)methanone], the melting point fell in the range of 198.8 to 200.8 °C. The inhibition at 1 µM on Dyrk1B was 21%. Moreover, the inhibition at 1 µM at Dyrk1A amounted to 12%. At Clk1, the inhibition at 1 µM turned out to be 33%.

`O=C(NCc1ccco1)c1cc2cc(O)ccc2s1` [Compound 28, N-(Furan-2-Ylmethyl)-5-hydroxybenzo[b]thiophene-2-carboxamide] yielded a melting point of 99.2 to 101.6 °C. For the same compound, the inhibition at 1 µM at Dyrk1B worked out at 52%. Besides, on Dyrk1A, the pIC50 was 6.11 and the inhibition at 1 µM came to 66%. Also, on Clk1, the negative logarithm of the IC50 (pIC50) was 6.23 and the inhibition at 1 µM is 61%.

As to `Cc1cc(C)cc(CNC(=O)c2cc3cc(O)ccc3s2)c1` [Compound 19, N-(3,5-Dimethylbenzyl)-5-hydroxybenzo[b]thiophene-2-carboxamide], the melting point was 140.2 to 141.8 °C. For the same compound, the inhibition at 1 µM on Dyrk1B was found to be 0%. Moreover, at Dyrk1A, the inhibition at 1 µM was 22%. Moreover, at Clk1, the inhibition at 1 µM was 53%.

For the compound `Cc1cccc(CNC(=O)c2cc3cc(O)ccc3s2)c1` [Compound 9, 5-Hydroxy-N-(3-methylbenzyl)benzo[b]thiophene-2-carboxamide], the melting point lay within 176.3 to 178.4 °C. On Dyrk1B, the inhibition at 1 µM stood at 40%. On Dyrk1A, the inhibition at 1 µM was 33%. Moreover, at Clk1, the negative logarithm of the IC50 (pIC50) was 6.10 and the inhibition at 1 µM was determined as 61%.

Take `O=C(NCc1cccnc1)c1cc2cc(O)ccc2s1` [Compound 26, 5-Hydroxy-N-(pyridin-3-ylmethyl)benzo[b]thiophene-2-carboxamide]: the melting point was in the range of 198 to 200.8 °C. On Dyrk1B, the inhibition at 1 µM stood at 39%. Also, the inhibition at 1 µM on Dyrk1A is 34%. For the same compound, the inhibition at 1 µM on Clk1 was found to be 47%.

On to `O=C(NCc1ccccc1)c1cc2cc(O)ccc2s1` [Compound 1, N-Benzyl-5-hydroxybenzo[b]thiophene-2-carboxamide], for which the figures for the negative-log IC50 (pIC50) at Dyrk1B and at Clk1 were 6.08 and 6.13, respectively. For the same compound, the inhibition at 1 µM worked out at 60% on Dyrk1B, 46% at Dyrk1A and 60% on Clk1.

Compound `O=C(NCCc1c[nH]c2ccccc12)c1cc2cc(O)ccc2s1` [Compound 30, N-(2-(1H-Indol-3-yl)ethyl)-5-hydroxybenzo[b]thiophene-2-carboxamide] showed a melting point of 211.4 to 213 °C. Also, at Dyrk1B, the inhibition at 1 µM worked out at 40%. For the same compound, the inhibition at 1 µM at Dyrk1A was found to be 20%. Further, on Clk1, the negative logarithm of the IC50 (pIC50) was 6.46 and the inhibition at 1 µM is 74%.

As for `COc1cc(CNC(=O)c2cc3cc(O)ccc3s2)cc(OC)c1` [Compound 23, N-(3,5-Dimethoxybenzyl)-5-hydroxybenzo[b]thiophene-2-carboxamide], the inhibition at 1 µM is 22% at Dyrk1B, 12% on Dyrk1A and 22% on Clk1.

As for `O=C(NCc1ccc(F)cc1)c1cc2cc(O)ccc2s1` [Compound 7, N-(4-Fluorobenzyl)-5-hydroxybenzo[b]thiophene-2-carboxamide], the melting point was in the range of 195 to 197.2 °C. Moreover, the inhibition at 1 µM on Dyrk1B was 38%. In addition, the inhibition at 1 µM at Dyrk1A turned out to be 26%. Moreover, the inhibition at 1 µM at Clk1 stood at 50%.

As to `Cc1ccccc1CNC(=O)c1cc2cc(O)ccc2s1` [Compound 8, 5-Hydroxy-N-(2-methylbenzyl)benzo[b]thiophene-2-carboxamide], the melting point was in the range of 159.1 to 161.2 °C. Besides, the inhibition at 1 µM at Dyrk1B worked out at 48%. For the same compound, at Dyrk1A, the pIC50 was 6.07 and the inhibition at 1 µM was 61%. Moreover, on Clk1, the pIC50 was 6.23 and the inhibition at 1 µM amounted to 63%.

Compound `O=C(NCc1cc(C(F)(F)F)cc(C(F)(F)F)c1)c1cc2cc(O)ccc2s1` [Compound 18, N-(3,5-Bis(trifluoromethyl)benzyl)-5-hydroxybenzo[b]thiophene-2-carboxamide] gave a melting point of 199 to 201 °C. Further, the inhibition at 1 µM at Dyrk1B turned out to be 0%. Moreover, the inhibition at 1 µM at Dyrk1A was 8%. The inhibition at 1 µM on Clk1 is 26%.

`COc1ccc(CNC(=O)c2cc3cc(O)ccc3s2)cc1OC` [Compound 22, N-(3,4-Dimethoxybenzyl)-5-hydroxybenzo[b]thiophene-2-carboxamide] displayed a melting point of 188.3 to 190.3 °C. In addition, the inhibition at 1 µM at Dyrk1B stood at 16%. Also, the inhibition at 1 µM at Dyrk1A worked out at 8%. Moreover, at Clk1, the inhibition at 1 µM came out at 18%.

With `O=C(NCc1ccccc1Cl)c1cc2cc(O)ccc2s1` [Compound 2, N-(2-Chlorobenzyl)-5-hydroxybenzo[b]thiophene-2-carboxamide], the melting point lay in the range of 140.2 to 142 °C. In addition, the inhibition at 1 µM at Dyrk1B turned out to be 46%. Also, at Dyrk1A, the pIC50 is 6.15 and the inhibition at 1 µM came to 61%. Besides, on Clk1, the pIC50 is 6.11 and the inhibition at 1 µM came to 61%.

`O=C(NCc1ccccc1F)c1cc2cc(O)ccc2s1` [Compound 5, N-(2-Fluorobenzyl)-5-hydroxybenzo[b]thiophene-2-carboxamide] gave a melting point of 199.8 to 201.7 °C. For the same compound, on Dyrk1B, the pIC50 was 6.14 and the inhibition at 1 µM was 62%. On Dyrk1A, the inhibition at 1 µM came out at 48%. For the same compound, on Clk1, the negative-log IC50 (pIC50) is 6.11 and the inhibition at 1 µM was found to be 63%.
